Experimental findings from patent publication US20250250284A1, “MACROCYCLE COMPOUNDS USEFUL AS KRAS INHIBITORS” (Hoffmann-La Roche Inc., priority 2022, published 2025) are described below.

In experiment [1] the test system is NCI-H358 cells. Kind of experiment: Cell viability assay (Cell Counting Kit-8), KRAS G12C. It is filed as cell-based. As to conditions: Homo sapiens, 72 hrs incubation, CCK-8. On the procedure: (§1) The purpose of this cellular assay was to determine the effects of test compounds on the proliferation of human cancer cell lines NCI-H358 (ATCC-CRL5807) cells, AGS (ATCC-CRL-1739) cells, SW620 (ATCC-CCL-227) over a 3-day treatment period by quantifying the amount of NADPH present at endpoint using Cell Counting Kit-8.
(§2) Cells were seeded at 5,000 cells/well (NCI-H358), 2,000 cells/well (AGS) 2,000 cells/well (SW620) in 96-well assay plates (Corning-3699) and incubated overnight. On the day of the assay, diluted compounds were then added in a final concentration of 0.5% DMSO. After 72 hrs incubation, a tenth of the volume of cell counting kit 8 (Dnjindo-CK04) was added into each well. Read the signal (OD450 minus OD650) using EnVision after 2 hrs incubation. IC50 was determined by fitting a 4-parameter sigmoidal concentration response model.
In general terms: Tetrazolium assays rely on reduction of a dye to a coloured formazan, in cell work by metabolically active cells.

Experiment [2] concerns AGS cells. Kind of experiment: Cell viability assay (Cell Counting Kit-8), KRAS G12D. It is filed as cell-based. To be noted: Homo sapiens, 72 hrs incubation, CCK-8. As to the method:
as §1, §2

In experiment [3] the test system is SW620 cells. In words: Cell viability assay (Cell Counting Kit-8), KRAS G12V. The experiment is classed as cell-based. To be noted: Homo sapiens, SW-620, 72 hrs incubation, CCK-8. As to the method: as §1, §2
The target in experiment [4] is KRAS G12C-BRAF complex (Homo sapiens (Human), UniProt P01116+P62937, G12C). Kind of experiment: KRAS-BRAF with CYPA (500 nM) interaction assay (TR-FRET), G12C. The experiment is classed as binding. To be noted: GMPPNP loaded 6His-KRAS, GST-BRAF RBD, 3 hours. As to the method: (§3) KRAS-BRAF with CYPA (500 nM) Interaction Assay
Chain of KRAS G12C-BRAF complex (P01116-2 other isoform, or with tags, fused parts or gaps G12C): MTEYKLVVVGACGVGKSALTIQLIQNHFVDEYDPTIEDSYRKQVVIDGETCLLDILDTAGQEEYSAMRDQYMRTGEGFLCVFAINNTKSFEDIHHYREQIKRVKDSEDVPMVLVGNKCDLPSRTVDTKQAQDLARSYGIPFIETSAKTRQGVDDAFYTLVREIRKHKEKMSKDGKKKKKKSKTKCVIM
Chain of KRAS G12C-BRAF complex (P62937 whole entry): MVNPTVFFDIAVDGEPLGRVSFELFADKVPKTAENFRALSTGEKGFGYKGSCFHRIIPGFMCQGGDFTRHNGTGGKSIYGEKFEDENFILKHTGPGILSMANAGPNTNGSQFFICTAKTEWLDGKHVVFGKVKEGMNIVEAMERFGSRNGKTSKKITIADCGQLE
(§4) In this example, TR-FRET was also used to measure the compound or compound-CYPA dependent disruption of the KRAS G12C-BRAF complex. This protocol was also used to measure disruption of KRAS G12D or KRAS G12V binding to BRAF by a compound of the invention, respectively. In assay buffer containing 25 mM HEPES PH=7.4 (4-(2-hydroxyethyl)-1-piperazineethanesulfonic acid, Thermo, 15630080), 0.002% Tween20, 0.1% BSA, 100 mM NaCl, 5 mM MgCl2, 10 μM GMPPNP (Guanosine 5′-[β,γ-imido]triphosphate trisodium salt hydrate, Sigma, G0635), tagless CYPA, GMPPNP loaded 6His-KRAS proteins, and GST-BRAF^RBD were mixed in a well of a 384-well assay plate at final concentrations of 50 nM, 6.25 nM and 1 nM, respectively. Compound was present in plate wells as a 16-point 3-fold dilution series starting at a final concentration of 10 μM and incubated for 3 hours. A mixture of MAb Anti-6His-XL665 (Cisbio, 61HISXLB) and Mab anti-GST-TB cryptate (Cisbio, 61GSTTLB) was then added at a final concentration of 6.67 nM and 0.21 nM, respectively, and the plate was incubated for an additional 1.5 hours. TR-FRET signal was read on a PHERstar FSX microplate reader (Ex320 nm, Em 665/615 nm). Compounds that facilitate disruption of the KRAS-BRAF complex were identified as those eliciting a decrease in the TR-FRET ratio relative to DMSO control wells.

For experiment [5], the target named is KRAS G12D binding to BRAF (Homo sapiens (Human), UniProt P01116+P62937, G12D). Kind of experiment: KRAS-BRAF with CYPA (500 nM) interaction assay (TR-FRET), G12D. As to conditions: GMPPNP loaded 6His-KRAS, GST-BRAF RBD, 3 hours. On the procedure: as §3, §4
Chain of KRAS G12D binding to BRAF (P01116-2 other isoform, or with tags, fused parts or gaps G12D): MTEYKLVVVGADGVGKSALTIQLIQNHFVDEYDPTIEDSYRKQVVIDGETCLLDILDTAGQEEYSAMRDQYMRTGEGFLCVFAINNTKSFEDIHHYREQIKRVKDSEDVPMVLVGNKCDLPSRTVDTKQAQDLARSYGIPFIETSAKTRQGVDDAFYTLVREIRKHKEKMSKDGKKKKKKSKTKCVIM
Chain of KRAS G12D binding to BRAF (P62937 whole entry): as the sequence (P62937 whole entry) above
A general note: TR-FRET usually uses a lanthanide donor and a delayed reading to cut background.

Experiment [6] addresses KRAS G12V binding to BRAF (Homo sapiens (Human), UniProt P01116+P62937, G12V). In words: KRAS-BRAF with CYPA (500 nM) interaction assay (TR-FRET), G12V. As to conditions: GMPPNP loaded 6His-KRAS, GST-BRAF RBD, 3 hours. On the procedure: as §3, §4
Experiment [7] relates to phosphorylation of ERK, KRAS G12C in NCI-H358 cells. In words: pERK inhibition assay, KRAS G12C. It is filed as cell-based. As to conditions: Homo sapiens, 4 hours of incubation. On the procedure:
(§5) This assay is to measure the ability of test compounds in inhibiting the phosphorylation of ERK, the downstream signaling of KRAS G12C in NCI-H358 cells, KRAS G12D in AGS cells, and KRAS G12V in SW620. NCI-H358 (ATCC-CRL5807) cells, AGS (ATCC-CRL-1739) cells, SW620 (ATCC-CCL-227) cells were all grown and maintained using RPMI-1640 medium (Thermo Fisher Scientific) with 10% fetal bovine serum and 1% penicillin/streptomycin. On the day prior to compound addition, cells were plated in tissue culture-treated 96 well plates (Corning-3699) at a density of 30,000 cell/well, 20,000 cell/well, 30,000 cell/well for NCI-H358, AGS and SW620 respectively, and allowed for attachment overnight. Diluted compounds were then added in a final concentration of 0.5% DMSO. After 4 hours of incubation, the medium was removed, 100 μL of 4% formaldehyde was added, and the assay plates were incubated at room temperature for 20 minutes. The plates were then washed once with phosphate buffered saline (PBS), and permeabilized with 100 μL of chilled methanol for 10 minutes. Non-specific antibody binding to the plates was blocked using 50 μL 1×BSA blocking buffer (Thermo-37520, 10-fold dilution by Phosphate-Buffered Saline Tween (PBST) for at least 1 hour at room temperature.
(§6) The amount of phosphor-ERK was determined using an antibody specific for phosphorylated form of ERK. Primary antibody (pERK, CST-4370, Cell Signaling Technology) was diluted 1:300 in blocking buffer, with 50 μL aliquoted to each well, and incubated overnight at 4° C. Cells was washed five times for 5 minutes with PBST. Secondary antibody (HRP-linked anti-rabbit IgG, CST-7074, Cell Signaling Technology) was diluted 1:1000 in blocking buffer, and 50 μL was added to each well and incubated 1-2 hrs at room temperature. Cells was washed 5 times for 5 minutes with PBST, 100 μL TMB ELISA substrate (abcam-ab171523) were added and gently shake for 20 minutes. 50 μL stop solution (abcam-ab171529) were added, and then read the signal (OD450) by EnVision.
(§7) IC50 was determined by fitting a 4-parameter sigmoidal concentration response model.

For experiment [8], the system named is phosphorylation of ERK, KRAS G12D in AGS cells. Kind of experiment: pERK inhibition assay, KRAS G12D. It is filed as cell-based. As to conditions: Homo sapiens, 4 hours of incubation. On the procedure:
as §5, §6, §7

Experiment [9] concerns phosphorylation of ERK, KRAS G12V in SW620. In words: pERK inhibition assay, KRAS G12V. As to conditions: Homo sapiens, SW-620; SW620 cells, 4 hours of incubation. The experiment is classed as cell-based. As to the method:
as §5, §6, §7

Chain of KRAS G12V binding to BRAF (P01116-2 other isoform, or with tags, fused parts or gaps G12V): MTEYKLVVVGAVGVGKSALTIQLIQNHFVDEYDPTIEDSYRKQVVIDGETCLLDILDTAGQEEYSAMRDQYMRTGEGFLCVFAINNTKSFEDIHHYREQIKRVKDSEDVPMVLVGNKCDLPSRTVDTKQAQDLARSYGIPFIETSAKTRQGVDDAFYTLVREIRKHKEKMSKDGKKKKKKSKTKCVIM
Chain of KRAS G12V binding to BRAF (P62937 whole entry): as the sequence (P62937 whole entry) above

Take `CCn1c(-c2cc(N3CCN(C)CC3)cnc2[C@H](C)OC)c2c3cc(c(F)cc31)-c1csc(n1)C[C@H](NC(=O)[C@H]1C[C@@H]1C)C(=O)N1CCC[C@H](N1)C(=O)OCC(C)(C)C2` (atropisomer, axis not shown; (M)) [Example 1, (1S,2S)—N-[(7S,13S)-21-ethyl-24-fluoro-(20M)-20-[2-[(1S)-1-methoxyethyl]-5-(4-methylpiperazin-1-yl)-3-pyridyl]-17,17-dimethyl-8,14-dioxo-15-oxa-4-thia-9,21,27,28-tetrazapentacyclo[17.5.2.1^2,5.1^9,13.0^22,26]octacosa-1(25),2,5(28),19,22(26),23-hexaen-7-yl]-2-methyl-cyclopropanecarboxamide]: the IC50 in experiment [1] was found to be 0.018 µM; in [2], 4.63 µM; in experiment [3] it was 0.009 µM; in experiment [4], 0.108 µM; in [5] it was 0.915 µM; in [6], 0.211 µM. The IC50 in experiment [7] is 0.011 µM; in [8] it was 0.034 µM; in experiment [9], 0.004 µM.
For `CCn1c(-c2cc(N3CCN(C)CC3)cnc2[C@H](C)OC)c2c3cc(c(F)cc31)-c1csc(n1)C[C@H](NC(=O)[C@H]1[C@@H]3COC[C@@H]31)C(=O)N1CCC[C@H](N1)C(=O)OCC(C)(C)C2` (atropisomer, axis not shown; (M)) [Example 2, (1R,5S)—N-[(7S,13S)-21-ethyl-24-fluoro-(20M)-20-[2-[(1S)-1-methoxyethyl]-5-(4-methylpiperazin-1-yl)-3-pyridyl]-17,17-dimethyl-8,14-dioxo-15-oxa-4-thia-9,21,27,28-tetrazapentacyclo[17.5.2.1^2,5.1^9,13.0^22,26]octacosa-1(25),2,5(28),19,22(26),23-hexaen-7-yl]-3-oxabicyclo[3.1.0]hexane-6-carboxamide], the IC50 worked out at 0.011 µM in [1]; 0.059 µM in experiment [2]; 0.005 µM in experiment [3]; 0.134 µM in [4]; 0.957 µM in experiment [5]; 0.174 µM in experiment [6]. For the same molecule, the IC50 stood at 0.009 µM in experiment [7], 0.018 µM in [8] and 0.003 µM in experiment [9].
For `CCn1c(-c2cc(N3CCOCC3)cnc2[C@H](C)OC)c2c3cc(c(F)cc31)-c1csc(n1)C[C@H](NC(=O)[C@H]1C[C@@H]1C(F)F)C(=O)N1CCC[C@H](N1)C(=O)OCC(C)(C)C2` (atropisomer, axis not shown; (M)) [Example 11, (1S,2S)-2-(difluoromethyl)-N-[(7S,13S)-21-ethyl-24-fluoro-(20M)-20-[2-[(1S)-1-methoxyethyl]-5-morpholino-3-pyridyl]-17,17-dimethyl-8,14-dioxo-15-oxa-4-thia-9,21,27,28-tetrazapentacyclo[17.5.2.1^2,5.1^9,13.0^22,26]octacosa-1(25),2,5(28),19,22(26),23-hexaen-7-yl]cyclopropanecarboxamide], the IC50 in [1] worked out at 0.005 µM; in experiment [2], 0.111 µM; in experiment [3], 0.007 µM; in experiment [7], 0.021 µM; in experiment [8] it was 0.028 µM; in experiment [9], 0.007 µM.
As to `CO[C@@H](C)c1ncc(N2CCOCC2)cc1-c1c2c3cc(c(F)cc3n1CC(F)(F)F)-c1csc(n1)C[C@H](NC(=O)[C@H]1C[C@@H]1C)C(=O)N1CCC[C@H](N1)C(=O)OCC(C)(C)C2` (atropisomer, axis not shown; (M)) [Example 12, (1S,2S)—N-[(7S,13S)-24-fluoro-(20M)-20-[2-[(1S)-1-methoxyethyl]-5-morpholino-3-pyridyl]-17,17-dimethyl-8,14-dioxo-21-(2,2,2-trifluoroethyl)-15-oxa-4-thia-9,21,27,28-tetrazapentacyclo[17.5.2.1^2,5.1^9,13.0^22,26]octacosa-1(25),2,5(28),19,22(26),23-hexaen-7-yl]-2-methyl-cyclopropanecarboxamide], the IC50 is 0.011 µM in experiment [1]; 0.244 µM in experiment [2]; 0.016 µM in [3]; 0.033 µM in [7]; 0.053 µM in experiment [8]; 0.009 µM in experiment [9].
Regarding `CCn1c(-c2cc(N3CCN(C)CC3)cnc2[C@H](C)OC)c2c3cc(c(F)cc31)-c1csc(n1)C[C@H](NC(=O)[C@H]1C[C@@H]1C#N)C(=O)N1CCC[C@H](N1)C(=O)OCC(C)(C)C2` [Example 5, (1S,2S)-2-cyano-N-[(7S,13S)-21-ethyl-24-fluoro-(20M)-20-[2-[(1S)-1-methoxyethyl]-5-(4-methylpiperazin-1-yl)-3-pyridyl]-17,17-dimethyl-8,14-dioxo-15-oxa-4-thia-9,21,27,28-tetrazapentacyclo[17.5.2.1^2,5.1^9,13.0^22,26]octacosa-1(25),2,5(28),19,22(26),23-hexaen-7-yl]cyclopropanecarboxamide], the IC50 in experiment [1] stood at 0.023 µM; in experiment [2], 0.089 µM; in [3], 0.012 µM; in experiment [7] it was 0.057 µM; in experiment [8] it was 0.056 µM; in [9], 0.013 µM.
As to `CCn1c(-c2cc(N3CCN(C)CC3)cnc2[C@H](C)OC)c2c3cc(c(F)cc31)-c1csc(n1)C[C@H](NC(=O)[C@@H]1C[C@H]1C#N)C(=O)N1CCC[C@H](N1)C(=O)OCC(C)(C)C2` [Example 6, (1R,2R)-2-cyano-N-[(7S,13S)-21-ethyl-24-fluoro-(20M)-20-[2-[(1S)-1-methoxyethyl]-5-(4-methylpiperazin-1-yl)-3-pyridyl]-17,17-dimethyl-8,14-dioxo-15-oxa-4-thia-9,21,27,28-tetrazapentacyclo[17.5.2.1^2,5.1^9,13.0^22,26]octacosa-1(25),2,5(28),19,22(26),23-hexaen-7-yl]cyclopropanecarboxamide], the IC50 in [1] is 0.079 µM; in experiment [2], 0.316 µM; in [3], 0.035 µM; in [7], 0.079 µM; in [8], 0.116 µM; in experiment [9] it was 0.025 µM.

As usually defined, the IC50 is the concentration needed to halve the response being measured.
